12 molecules from patent US12539292B2, “BRM targeting compounds and associated methods of use” (Arvinas Operations, Inc., priority 2018, dated 2026) can be followed below.

Read-outs that look alike come from different tables or passages of the source. A value given as a limit tells only on which side of the number the result lay.

This experiment has as its target T1, BRM (Homo sapiens, UniProt P51531).
T1 construct: In-Cell Western Screen of BRM Degradation in SW1573 Cells; endogenous in cells; host or cells: SW1573
Briefly: In-cell Western screen of BRM degradation in SW1573 cells (Dmax and DC50). It counts as cell-based. In a few lines: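 After adhering overnight, cells received compound for 18-20 hours. They were then washed in cold DPBS, fixed with 4% PFA for 20 min and permeabilized for 30 min. Blocking and fluorescent secondary staining followed before imaging.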

Where [1] appears, read: SW1573, % degraded, when tested at the top concentration of between 0.3 and 10 μM, read-out: BRM Dmax (%).
Setting [2] is: BRM degradation, SW1573 cells, read-out: DC50.
The mark [3] stands for this setting: BRM degradation, SW1573 cells, Table 2D, read-out: *DC50.
Setting [4] is: BRM degradation, SW1573 cells, tested at the top concentration of between 0.3 and 10 μM, read-out: Dmax (%) (% degraded).

T1 sequence (P51531 whole entry): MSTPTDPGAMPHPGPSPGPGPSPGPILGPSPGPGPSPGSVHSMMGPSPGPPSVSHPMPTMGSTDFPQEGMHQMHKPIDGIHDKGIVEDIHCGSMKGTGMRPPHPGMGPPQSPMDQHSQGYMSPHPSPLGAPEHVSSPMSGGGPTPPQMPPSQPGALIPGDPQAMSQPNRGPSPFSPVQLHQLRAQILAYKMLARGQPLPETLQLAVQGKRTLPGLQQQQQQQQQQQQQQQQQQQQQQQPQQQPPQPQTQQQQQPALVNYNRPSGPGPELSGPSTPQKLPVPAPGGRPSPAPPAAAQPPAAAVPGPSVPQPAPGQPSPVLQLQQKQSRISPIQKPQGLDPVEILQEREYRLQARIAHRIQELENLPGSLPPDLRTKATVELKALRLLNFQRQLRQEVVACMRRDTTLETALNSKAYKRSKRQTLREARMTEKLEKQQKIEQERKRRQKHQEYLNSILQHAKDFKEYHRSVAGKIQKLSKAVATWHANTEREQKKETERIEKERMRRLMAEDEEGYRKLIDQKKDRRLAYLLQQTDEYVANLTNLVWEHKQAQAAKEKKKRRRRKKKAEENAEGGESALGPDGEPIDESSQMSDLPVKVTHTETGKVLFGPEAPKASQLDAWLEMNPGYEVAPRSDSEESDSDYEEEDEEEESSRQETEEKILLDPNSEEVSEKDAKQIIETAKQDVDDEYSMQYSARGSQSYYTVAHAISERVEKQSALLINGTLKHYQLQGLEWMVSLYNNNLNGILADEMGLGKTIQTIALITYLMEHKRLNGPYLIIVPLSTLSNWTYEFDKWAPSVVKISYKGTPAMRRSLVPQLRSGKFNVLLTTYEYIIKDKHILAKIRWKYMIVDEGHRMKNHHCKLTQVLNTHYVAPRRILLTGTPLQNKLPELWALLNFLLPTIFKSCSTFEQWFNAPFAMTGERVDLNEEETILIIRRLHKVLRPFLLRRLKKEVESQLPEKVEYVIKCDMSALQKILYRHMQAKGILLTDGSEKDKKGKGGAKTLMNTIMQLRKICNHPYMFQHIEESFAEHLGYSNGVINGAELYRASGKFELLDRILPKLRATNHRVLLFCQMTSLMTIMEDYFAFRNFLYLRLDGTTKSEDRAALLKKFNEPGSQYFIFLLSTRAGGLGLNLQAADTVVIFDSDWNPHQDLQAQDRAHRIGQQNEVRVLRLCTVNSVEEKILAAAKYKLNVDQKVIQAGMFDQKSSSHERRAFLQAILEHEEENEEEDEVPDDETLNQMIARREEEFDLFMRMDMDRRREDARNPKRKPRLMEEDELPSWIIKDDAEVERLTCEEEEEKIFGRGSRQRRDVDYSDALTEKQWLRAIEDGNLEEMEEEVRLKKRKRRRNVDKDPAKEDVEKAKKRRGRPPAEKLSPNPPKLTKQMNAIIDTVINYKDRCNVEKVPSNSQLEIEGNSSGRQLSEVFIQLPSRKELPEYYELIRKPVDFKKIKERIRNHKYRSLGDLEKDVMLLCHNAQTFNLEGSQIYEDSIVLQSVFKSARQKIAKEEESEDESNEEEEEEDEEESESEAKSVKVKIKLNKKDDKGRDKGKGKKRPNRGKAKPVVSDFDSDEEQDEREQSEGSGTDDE

One may read the Dmax as the greatest extent of degradation seen. For orientation: DC50 means the concentration at which degradation of the target reaches its halfway point. Consider `Cc1ncsc1-c1ccc([C@H](C)NC(=O)[C@@H]2C[C@@H](O)CN2C(=O)[C@@H](c2cc(OCC(F)(F)CN3CCC(O[C@H]4C[C@H](Oc5cc(N6C7CCC6CN(c6cc(-c8ccccc8O)nnc6N)C7)ccn5)C4)CC3)no2)C(C)C)cc1` [compound 484, (2S,4R)-1-((2R)-2-(3-(3-(4-((1r,3R)-3-((4-(3-(3-amino-6-(2-hydroxyphenyl)pyridazin-4-yl)-3,8-diazabicyclo[3.2.1]octan-8-yl)pyridin-2-yl)oxy)cyclobutoxy)piperidin-1-yl)-2,2-difluoropropoxy)isoxazol-5-yl)-3-methylbutanoyl)-4-hydroxy-N-((S)-1-(4-(4-methylthiazol-5-yl)phenyl)ethyl)pyrrolidine-2-carboxamide], for which the Dmax under setting [1] is more than 75%. Also, for the setting “target protein degradation, read-out: BRM DC50”, the DC50 was less than 2.5 nM.

As for `COC[C@@H](NC(=O)[C@@H]1C[C@@H](O)CN1C(=O)[C@@H](c1cc(N2CCC(CN3CCC(O[C@H]4C[C@H](Oc5cc(N6C7CCC6CN(c6cc(-c8ccccc8O)nnc6N)C7)ccn5)C4)CC3)CC2)no1)C(C)C)c1ccc(-c2scnc2C)cc1` [compound 667, (2S,4R)-1-((2R)-2-(3-(4-((4-((1r,3r)-3-((4-(3-(3-amino-6-(2-hydroxyphenyl)pyridazin-4-yl)-3,8-diazabicyclo[3.2.1]octan-8-yl)pyridin-2-yl)oxy)cyclobutoxy)piperidin-1-yl)methyl)piperidin-1-yl)isoxazol-5-yl)-3-methylbutanoyl)-4-hydroxy-N-((S)-2-methoxy-1-(4-(4-methylthiazol-5-yl)phenyl)ethyl)pyrrolidine-2-carboxamide], the DC50 under setting [2] fell in the range of 10 to 30 nM. The Dmax (BRM degradation, SW1573 cells, read-out: Dmax (% degraded)) was more than 75%.

Take `Cc1ncsc1-c1ccc(CNC(=O)[C@@H]2C[C@@H](O)CN2C(=O)[C@@H](NC(=O)Cc2ccc(N3CCN(CCOCCCc4cc(N5C6CCC5CN(c5cc(-c7ccccc7O)nnc5N)C6)ccn4)CC3)nc2)C(C)(C)C)cc1` [compound 31, (2S,4R)-1-((2S)-2-(2-(6-(4-(2-(3-(4-(3-(3-amino-6-(2-hydroxyphenyl)pyridazin-4-yl)-3,8-diazabicyclo[3.2.1]octan-8-yl)pyridin-2-yl)propoxy)ethyl)piperazin-1-yl)pyridin-3-yl)acetamido)-3,3-dimethylbutanoyl)-4-hydroxy-N-(4-(4-methylthiazol-5-yl)benzyl)pyrrolidine-2-carboxamide]: the DC50 under setting [2] fell in the range of 10 to 30 nM. Further, under “BRM degradation, SW1573 cells, when tested at the top concentration of between 0.3 and 10 μM, read-out: Dmax (%) (% degraded)”, the Dmax was more than 75%.

In the case of `Cc1ncsc1-c1ccc([C@H](C)NC(=O)[C@@H]2C[C@@H](O)CN2C(=O)[C@H](c2cc(OCC[C@@H]3CCN(C[C@H]4C[C@H](Oc5cc(N6C7CCC6CN(c6cc(-c8ccccc8O)nnc6N)C7)ccn5)C4)C[C@H]3C)no2)C(C)C)cc1` (racemic) [compound 545, (2S,4R)-1-((2S)-2-(3-(2-((3S,4S)-1-(((1r,3S)-3-((4-(3-(3-amino-6-(2-hydroxyphenyl)pyridazin-4-yl)-3,8-diazabicyclo[3.2.1]octan-8-yl)pyridin-2-yl)oxy)cyclobutyl)methyl)-3-methylpiperidin-4-yl)ethoxy)isoxazol-5-yl)-3-methylbutanoyl)-4-hydroxy-N-((S)-1-(4-(4-methylthiazol-5-yl)phenyl)ethyl)pyrrolidine-2-carboxamide], for the setting “BRM degradation, SW1573 cells, Table 2D, read-out: **Dmax (%) (% degraded)”, the Dmax was more than 75%. The DC50 under setting [3] was in the range of 2.5 to 10 nM.

As for `CC(C)C(C(=O)N1C[C@H](O)C[C@H]1C(=O)N[C@@H](C)c1ccc(C#N)cc1)c1cc(N2CCC(CN3CCC(O[C@H]4C[C@H](Oc5cc(N6C7CCC6CN(c6cc(-c8ccccc8O)nnc6N)C7)ccn5)C4)CC3)CC2)no1` (stereo partly drawn) [compound 639, (2S,4R)-1-((2S)-2-(3-(4-((4-((1r,3r)-3-((4-(3-(3-amino-6-(2-hydroxyphenyl)pyridazin-4-yl)-3,8-diazabicyclo[3.2.1]octan-8-yl)pyridin-2-yl)oxy)cyclobutoxy)piperidin-1-yl)methyl)piperidin-1-yl)isoxazol-5-yl)-3-methylbutanoyl)-N-((S)-1-(4-cyanophenyl)ethyl)-4-hydroxypyrrolidine-2-carboxamide], the DC50 under setting [2] was more than 30 nM.

On to `Cc1ncsc1-c1ccc(CNC(=O)[C@@H]2C[C@@H](O)CN2C(=O)[C@H](c2cc(OCCN3CCC(O[C@H]4C[C@H](Oc5cc(N6C7CCC6CN(c6cc(-c8ccccc8O)nnc6N)C7)ccn5)C4)CC3)no2)C(C)C)c(C#N)c1` [compound 224, (2S,4R)-1-((2S)-2-(3-(2-(4-((1r,3S)-3-((4-(3-(3-amino-6-(2-hydroxyphenyl)pyridazin-4-yl)-3,8-diazabicyclo[3.2.1]octan-8-yl)pyridin-2-yl)oxy)cyclobutoxy)piperidin-1-yl)ethoxy)isoxazol-5-yl)-3-methylbutanoyl)-N-(2-cyano-4-(4-methylthiazol-5-yl)benzyl)-4-hydroxypyrrolidine-2-carboxamide], for which the DC50 under setting [2] is more than 30 nM.

Take `Cc1ncsc1-c1ccc([C@H](C)NC(=O)[C@@H]2C[C@@H](O)CN2C(=O)[C@H](c2cc(OCCCC#Cc3ccc(O[C@H]4C[C@H](Oc5cc(N6C7CCC6CN(c6cc(-c8ccccc8O)nnc6N)C7)ccn5)C4)cn3)no2)C(C)C)cc1` [compound 249, (2S,4R)-1-((2S)-2-(3-((5-(5-((1r,3r)-3-((4-(3-(3-amino-6-(2-hydroxyphenyl)pyridazin-4-yl)-3,8-diazabicyclo[3.2.1]octan-8-yl)pyridin-2-yl)oxy)cyclobutoxy)pyridin-2-yl)pent-4-yn-1-yl)oxy)isoxazol-5-yl)-3-methylbutanoyl)-4-hydroxy-N-((S)-1-(4-(4-methylthiazol-5-yl)phenyl)ethyl)pyrrolidine-2-carboxamide]: the DC50 under setting [2] is more than 30 nM. Besides, under setting [4], the Dmax was more than 75%.

Consider `Cc1ncsc1-c1ccc([C@H](C)NC(=O)[C@@H]2C[C@@H](O)CN2C(=O)[C@H](c2cc(OCCN3CCN(CCCCN4CCOC5(CCN(c6cc(-c7ccccc7O)nnc6N)CC5)C4)CC3)no2)C(C)C)cc1` [compound 205, (2S,4R)-1-((S)-2-(3-(2-(4-(4-(9-(3-amino-6-(2-hydroxyphenyl)pyridazin-4-yl)-1-oxa-4,9-diazaspiro[5.5]undecan-4-yl)butyl)piperazin-1-yl)ethoxy)isoxazol-5-yl)-3-methylbutanoyl)-4-hydroxy-N-((S)-1-(4-(4-methylthiazol-5-yl)phenyl)ethyl)pyrrolidine-2-carboxamide], for which the DC50 under setting [2] was more than 30 nM. For the same molecule, the Dmax under setting [4] is more than 75%.

As to `Cc1ncsc1-c1ccc([C@@H](NC(=O)[C@@H]2C[C@@H](O)CN2C(=O)[C@H](c2cc(OCCN3CCN(CCOc4cc(N5C6CCC5CN(c5cc(-c7ccccc7O)nnc5N)C6)ccn4)CC3)no2)C(C)C)C(F)F)cc1` [compound 173, (2S,4R)-1-((2S)-2-(3-(2-(4-(2-((4-(3-(3-amino-6-(2-hydroxyphenyl)pyridazin-4-yl)-3,8-diazabicyclo[3.2.1]octan-8-yl)pyridin-2-yl)oxy)ethyl)piperazin-1-yl)ethoxy)isoxazol-5-yl)-3-methylbutanoyl)-N-((R)-2,2-difluoro-1-(4-(4-methylthiazol-5-yl)phenyl)ethyl)-4-hydroxypyrrolidine-2-carboxamide], under setting [2], the DC50 was more than 30 nM. Moreover, under setting [4], the Dmax is more than 75%.

Consider `Cc1cc([C@@H](C(=O)N2C[C@H](O)C[C@H]2C(=O)N[C@@H](C)c2ccc(-c3scnc3C)cc2)[C@@H](C)COCCCOc2cc(N3C4CCC3CN(c3cc(-c5ccccc5O)nnc3N)C4)ccn2)on1` [compound 494, (2S,4R)-1-((2S,3R)-4-(3-((4-(3-(3-amino-6-(2-hydroxyphenyl)pyridazin-4-yl)-3,8-diazabicyclo[3.2.1]octan-8-yl)pyridin-2-yl)oxy)propoxy)-3-methyl-2-(3-methylisoxazol-5-yl)butanoyl)-4-hydroxy-N-((S)-1-(4-(4-methylthiazol-5-yl)phenyl)ethyl)pyrrolidine-2-carboxamide], for which the DC50 (BRM degradation, read-out: BRM DC50) is less than 2.5 nM. The Dmax under setting [1] is more than 75%.

On to `Cc1ncsc1-c1ccc([C@H](C)NC(=O)[C@@H]2C[C@@H](O)CN2C(=O)[C@H](c2cc(OCC[C@H]3CCN(C[C@H]4C[C@H](Oc5cc(N6C7CCC6CN(c6cc(-c8ccccc8O)nnc6N)C7)ccn5)C4)C[C@H]3C)no2)C(C)C)cc1` (racemic) [compound 565, (2S,4R)-1-((2S)-2-(3-(2-((3S,4R)-1-(((1r,3S)-3-((4-(3-(3-amino-6-(2-hydroxyphenyl)pyridazin-4-yl)-3,8-diazabicyclo[3.2.1]octan-8-yl)pyridin-2-yl)oxy)cyclobutyl)methyl)-3-methylpiperidin-4-yl)ethoxy)isoxazol-5-yl)-3-methylbutanoyl)-4-hydroxy-N-((S)-1-(4-(4-methylthiazol-5-yl)phenyl)ethyl) pyrrolidine-2-carboxamide], for which the DC50 under setting [3] was more than 30 nM.

Consider `CC(C)[C@@H](C(=O)N1C[C@H](O)C[C@H]1C(=O)N[C@@H](C)c1ccc(C2CC2(F)F)cc1)c1cc(OCCN2CCC(O[C@H]3C[C@H](Oc4cc(N5C6CCC5CN(c5cc(-c7ccccc7O)nnc5N)C6)ccn4)C3)CC2)no1` (stereo partly drawn) [compound 439, (2S,4R)-1-((2R)-2-(3-(2-(4-((1r,3R)-3-((4-(3-(3-amino-6-(2-hydroxyphenyl)pyridazin-4-yl)-3,8-diazabicyclo[3.2.1]octan-8-yl)pyridin-2-yl)oxy)cyclobutoxy)piperidin-1-yl)ethoxy)isoxazol-5-yl)-3-methylbutanoyl)-N-((1S)-1-(4-(2,2-difluorocyclopropyl)phenyl)ethyl)-4-hydroxypyrrolidine-2-carboxamide], for which, under “degradation of BRM, read-out: BRM DC50”, the DC50 is more than 30 nM.
